Data published in article PMC10286336, “Potassium ion channels as a molecular target to reduce virus infection and mortality of honey bee colonies” (Virology Journal, 2023).
Read-outs that look alike come from different tables or passages of the source.

Key:
Assay type in all cases: in vivo, Apis mellifera
[1] = test system: honey bees
Description: (§1) The ability of KATP modulators to rescue or synergize paraquat-induced mortality was then assessed by incorporating modulators into 1:1 sucrose containing paraquat. […] Quantification of ROS among survivors was performed using the Total Antioxidant Capacity Assay kit (Cayman Chemical).

[2] = test system: glucose oxidase (GOX); test: Glucose oxidase activity of treated bees (social immunity); conditions: in vivo
Description: (§2) Individual bees were sampled at 24-h intervals and frozen in liquid nitrogen. Social immunity was measured by quantifying the metabolism of glucose to hydrogen peroxide by glucose oxidase. Briefly, heads were homogenized in ice-cold extraction buffer then centrifuged at 15,000×g. Aliquots of supernatant were incubated with horse radish peroxidase and glucose at 37 °C, then combined with the chromogen o-dianisidine dihydrochloride. Absorbance was read at 430 nm over a period of 90 min and compared to sample blanks, lacking chromogen. To measure individual immunity, phenoloxidase activity was measured as described. Abdomens were homogenized as and centrifuged as previously described. Supernatant was incubated at 37 °C, then combined with the chromogen L-Dopa. Absorbance was measured at 490 nm for 20 min, then compared to sample blanks lacking chromogen. To compare both glucose oxidase and phenol oxidase activity between samples, Vmax was calculated using the Michaelis–Menten equation.

[3] = test system: bees inoculated with Israeli acute paralysis virus (IAPV); test: IAPV-mediated mortality of bees fed KATP modulator or paraquat; set-up: Survivorship after IAPV inoculation compared to IAPV alone: dose or concentration left out as unconfirmed
Description: IAPV was obtained following our previously described methods. Approximately 30 adult bees from a heavily infected IAPV infected colony were froze in liquid nitrogen, ground to a fine powder, and homogenized in a phosphate extraction buffer. The supernatant was collected after centrifuging the emulsion and filtered through a 0.2 micron filter. The filtrate was subsequently centrifuged at 30,000 rpm to pellet the picornavirus particles and was followed by resusopension in PBS and centrifuged at 52,000 rpm overnight. The fractions containing virus particles were dialyzed against cold PBS overnight. Verification that IAPV was the only virus present in the inoculum was performed via qRT-PCR and quantification of IAPV was performed by absolute quantification using standard curve method as previously described.
Bees were immobilized on ice, then injected with PBS alone or containing IAPV and returned to the incubator. […] Quantification of IAPV mRNA among whole bees and excised insect dorsal vessels was performed by qRT-PCR as detailed below.

[4] = test system: honey bees; remark: listed apart in the source
Description: An LC50 for paraquat in 1:1 sucrose diet was determined for 72 h of oral exposure by constructing a concentration–response curve. The ability of KATP modulators to rescue or synergize paraquat-induced mortality was then assessed by incorporating modulators into 1:1 sucrose containing paraquat. Mortality assessments and sampling of surviving bees was conducted at 24-h intervals. Quantification of ROS among survivors was performed using the Total Antioxidant Capacity Assay kit (Cayman Chemical).

[5] = test system: total antioxidant concentrations in bees; test: Total antioxidant capacity of bees (quantification of ROS); conditions: alone
Description: as §1

[6] = test system: phenoloxidase (POX); test: Phenoloxidase activity of treated bees (individual immunity); conditions: 72 h post-exposure
Description: as §2

[7] = test system: bees from Varroa destructor infested colonies
Description: Age-matched bees from colonies with higher (> 10 mites/100 bees) and lower (< 1 mite/100 bees) were placed in hoarding cages and allowed to feed ad libitum on sucrose solution alone or containing paraquat. Survivorship was assessed at 24-h intervals, and LT50 times were calculated by nonlinear regression using a Hill equation.

CCCCNC(=O)NS(=O)(=O)c1ccc(C)cc1 [tolbutamide]
Effect on paraquat-induced toxicity ([1]; pre-exposure to modulator, 120-h feeding period): did not alter

C[n+]1ccc(-c2cc[n+](C)cc2)cc1 [paraquat, Paraquat dichloride hydrate]
Decrease in GOX compared to pinacidil-treated bees [2]: 3.3 fold
Decrease in GOX compared to untreated bees [2]: 11 fold
Survivorship after IAPV inoculation compared to IAPV alone [3]: increased survivorship
Mortality of IAPV + paraquat versus untreated control ([3]; 0.5 mg/mL paraquat, 24- and 48-h post-inoculation): not significantly different
Mortality of paraquat + IAPV versus untreated and IAPV-only bees ([3]; 0.5 mg/mL paraquat, 72 h post-inoculation): significantly (P < 0.05) greater than untreated bees, but significantly less than IAPV-only treated bees
Mortality ([4]; paraquat 1 and 2 mg/mL, 48 h post-exposure): ca. 50%
Mortality ([4]; paraquat 1 and 2 mg/mL, 72 h post-exposure): ca. 100%
Mortality ([4]; paraquat, 48 h post-exposure): ca. 20%
Mortality ([4]; paraquat, 72 h post-exposure): ~58%
Reduction of total antioxidant concentrations compared to untreated ([5]; 24 h): 1.3 fold
Reduction of total antioxidant concentrations compared to control treatment ([5]; 48 h): 1.4 fold
LT50 ([1]; 0.5 mg/mL paraquat alone, injection experiment): ca. 75 h
LT50 ([1]; oral, paraquat exposure alone): ca. 68 h
POX activity [6]: significantly reduced
Survivorship difference between low and high mite groups ([7]; 1 and 2 mg/mL paraquat): no statistical differences
LT50 (95% CI) ([7]; High mites, paraquat 0.1 mg/mL): 169 (142–177) Ba Hours
LT50 (95% CI) ([7]; High mites, paraquat 0.5 mg/mL): 99 (71–136) Bb Hours
LT50 (95% CI) ([7]; High mites, paraquat 1 mg/mL): 52 (22–84) Ac Hours
LT50 (95% CI) ([7]; High mites, paraquat 2 mg/mL): 47 (38–63) Ac Hours
LT50 (95% CI) ([7]; Low mites, paraquat 0.1 mg/mL): 82 (51–99) Aa Hours
LT50 (95% CI) ([7]; Low mites, paraquat 0.5 mg/mL): 66 (52–80) Ab Hours
LT50 (95% CI) ([7]; Low mites, paraquat 1 mg/mL): 54 (38–70) Ab Hours
LT50 (95% CI) ([7]; Low mites, paraquat 2 mg/mL): 49 (42–56) Ab Hours
Survivorship of bees from high versus low mite-infested colonies ([7]; paraquat 0.1 mg/mL, 96- to 168-h post treatment): significantly increased
Mortality in high mite versus low mite colonies ([7]; paraquat 0.5 mg/mL, 72- and 96-h post treatment): significant (P < 0.05) reduction of mortality
